Results: patent US20240400584A1, “COMPOUNDS AND METHODS FOR MODULATING SPLICING” (REMIX THERAPEUTICS INC., priority 2021, published 2024)

Columns and labels:
[1] = test system: HTT; assay: Gene panel canonical junction qPCR assay, HTT CJ mRNA (Table 7); type: cell-based, human; conditions: Homo sapiens, read-out: HTT CJ mRNA decrease IC50
Procedure, shortened: (§1)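 Canonical-junction transcript decrease reported as IC50 from a 4-parameter logistic fit of percentage response, derived from 2^(−ΔΔCt) versus housekeeper (GAPDH/GUSB/PPIA) and DMSO control using preset ΔCt windows. Readout by cDNA synthesis and qPCR with exon-junction-overlapping probesets in compound-treated K562 or A673 cells.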

[2] = test system: MYB; assay: Gene panel canonical junction qPCR assay, MYB CJ mRNA (Table 7); type: cell-based; conditions: Homo sapiens, read-out: MYB CJ mRNA decrease IC50
Procedure, shortened: as §1

[3] = test system: MYB; assay: RT-qPCR splicing assay, MYB AJ/CJ mRNA; type: cell-based; conditions: Homo sapiens, A673 or K562 cells, 24 hours; for IC50: decrease in canonical junction mRNA; for AC50: increase in alternative junction mRNA
Procedure, shortened: (§2)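 Cells: A673 (DMEM/10% FBS) or K562 (IMDM/10% FBS). Dosing: 11-pt 3-fold, top 10 uM final, DMSO ≤0.25%, 24 h, 37° C. Readout: one-step RT-qPCR on lysate, CJ vs AJ isoforms; ΔCt vs housekeeper, ΔΔCt vs DMSO, 2^(−ΔΔCt) RQ → % response.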

[4] = test system: Target C; assay: Gene panel canonical junction qPCR assay, Target C CJ mRNA (Table 7); type: cell-based, human; conditions: Homo sapiens, read-out: Target C CJ mRNA decrease IC50
Procedure, shortened: as §1

[5] = test system: SMN2; assay: Gene panel canonical junction qPCR assay, SMN2 CJ mRNA (Table 7); type: cell-based; conditions: Homo sapiens, read-out: SMN2 CJ mRNA decrease IC50
Procedure, shortened: as §1

[6] = test system: HTT; assay: RT-qPCR splicing assay, HTT AJ/CJ mRNA; type: cell-based, human; conditions: Homo sapiens, A673 or K562 cells; for IC50: decrease in canonical junction mRNA; for AC50: increase in alternative junction mRNA
Procedure, shortened: as §2

Compound | IC50 [1] | IC50 [2] | IC50 [3] | AC50 [3] | IC50 [4] | IC50 [5] | IC50 ([6]; 24 h) | AC50 ([6]; 24 h) | IC50 ([6]; 24 hours) | AC50 ([6]; 24 hours)
c1cnn(-c2ccc3c(c2)COc2nc(N(C4CCNCC4)C4CC4)ccc2-3)c1 [Compound 202] | 1000 to 10000 nM | 1000 to 10000 nM | 1000 to 10000 nM | > 10000 nM | > 10000 nM | > 10000 nM | 1000 to 10000 nM | > 10000 nM | – | –
CC1(C)CC(N(c2ccc3c(n2)OCc2cc(-n4cccn4)ccc2-3)C2CC2)CC(C)(C)N1 [Compound 204] | 1000 to 10000 nM | 1000 to 10000 nM | 1000 to 10000 nM | > 10000 nM | > 10000 nM | 1000 to 10000 nM | 1000 to 10000 nM | > 10000 nM | – | –
c1cc2c(cc1-c1cn[nH]c1)COc1nc(N3CCC4(CCN4)C3)ccc1-2 (stereo not drawn) [Compound 217, 6-[8-(1H-pyrazol-4-yl)-6H-isochromeno[3,4-b]pyridin-3-yl]-1,6-diazaspiro[3.4]octane] | 100 to 1000 nM | 1000 to 10000 nM | 1000 to 10000 nM | > 10000 nM | 1000 to 10000 nM | 100 to 1000 nM | 100 to 1000 nM | 1000 to 10000 nM | – | –
CC1(C)CC(Oc2ccc3c(n2)OCc2cc(-c4cn[nH]c4)ccc2-3)CC(C)(C)N1 [Compound 219, 8-(1H-pyrazol-4-yl)-3-((2,2,6,6-tetramethylpiperidin-4-yl)oxy)-6H-isochromeno [3,4-b] pyridine] | 100 to 1000 nM | 100 to 1000 nM | 100 to 1000 nM | > 10000 nM | 100 to 1000 nM | 100 to 1000 nM | 100 to 1000 nM | 100 to 1000 nM | – | –
CN1CCC12CCN(c1ccc3c(n1)OCc1cc(-c4cn[nH]c4)ccc1-3)C2 (stereo not drawn) [Compound 220, 3-(1-methyl-1,6-diazaspiro[3.4]octan-6-yl)-8-(1H-pyrazol-4-yl)-6H-isochromeno[3,4-b]pyridine] | 100 to 1000 nM | 100 to 1000 nM | 100 to 1000 nM | 100 to 1000 nM | 1000 to 10000 nM | 100 to 1000 nM | 100 to 1000 nM | 100 to 1000 nM | – | –
c1cc2c(cc1-c1cn[nH]c1)COc1nc(N3CCC34CCNCC4)ccc1-2 [Compound 221, 1-[8-(1H-pyrazol-4-yl)-6H-isochromeno[3,4-b]pyridin-3-yl]-1,7-diazaspiro[3.5]nonane 2,2,2-trifluoroacetate] | > 10000 nM | 1000 to 10000 nM | 1000 to 10000 nM | > 10000 nM | > 10000 nM | > 10000 nM | > 10000 nM | > 10000 nM | – | –
CN1CCCC2(CCN2c2ccc3c(n2)OCc2cc(-c4cn[nH]c4)ccc2-3)C1 (stereo not drawn) [Compound 222, 6-methyl-1-[8-(1H-pyrazol-4-yl)-6H-isochromeno[3,4-b]pyridin-3-yl]-1,6-diazaspiro[3.5]nonane] | > 10000 nM | > 10000 nM | > 10000 nM | > 10000 nM | > 10000 nM | > 10000 nM | > 10000 nM | > 10000 nM | – | –
COc1cc(-c2ccc3c(c2)COc2nc(O[C@@H]4C[C@H]5CC[C@@H](C4)N5)ccc2-3)cnn1 [Compound 223, (1R,3R,5S)-3-{[8-(6-methoxypyridazin-4-yl)-6H-isochromeno[3,4-b]pyridin-3-yl]oxy}-8-azabicyclo[3.2.1]octane] | < 100 nM | 100 to 1000 nM | 100 to 1000 nM | < 100 nM | < 100 nM | < 100 nM | < 100 nM | < 100 nM | – | –
FC1(F)CC2CC(Oc3ccc4c(n3)OCc3cc(-c5cn[nH]c5)ccc3-4)CC1N2 (stereo not drawn) [Compound 224, 6,6-difluoro-3-{[8-(1H-pyrazol-4-yl)-6H-isochromeno[3,4-b]pyridin-3-yl]oxy}-8-azabicyclo[3.2.1]octane] | 1000 to 10000 nM | > 10000 nM | > 10000 nM | > 10000 nM | > 10000 nM | 1000 to 10000 nM | 1000 to 10000 nM | 1000 to 10000 nM | – | –
COc1cc(-c2ccc3c(c2)COc2nc(OC4CC5CC(F)(F)C(C4)N5)ccc2-3)cnn1 (stereo not drawn) [Compound 225, 6,6-difluoro-3-{[8-(6-methoxypyridazin-4-yl)-6H-isochromeno[3,4-b]pyridin-3-yl]oxy}-8-azabicyclo[3.2.1]octane] | 100 to 1000 nM | > 10000 nM | > 10000 nM | > 10000 nM | > 10000 nM | 1000 to 10000 nM | 100 to 1000 nM | 1000 to 10000 nM | – | –
COc1cc(-c2ccc3c(c2)COc2nc(OC4CC(C)(C)NC(C)(C)C4)ccc2-3)cnn1 [Compound 226, 3-methoxy-5-{3-[(2,2,6,6-tetramethylpiperidin-4-yl)oxy]-6H-isochromeno[3,4-b]pyridin-8-yl}pyridazine] | < 100 nM | 100 to 1000 nM | 100 to 1000 nM | > 10000 nM | 100 to 1000 nM | < 100 nM | < 100 nM | < 100 nM | – | –
CN1CCC2(CC1)CCN2c1ccc2c(n1)OCc1cc(-c3cn[nH]c3)ccc1-2 [Compound 227, 7-methyl-1-[8-(1H-pyrazol-4-yl)-6H-isochromeno[3,4-b]pyridin-3-yl]-1,7-diazaspiro[3.5]nonane] | > 10000 nM | > 10000 nM | > 10000 nM | > 10000 nM | > 10000 nM | > 10000 nM | > 10000 nM | > 10000 nM | – | –
C[C@]12CC[C@](C)(C[C@@H](Oc3ccc4c(n3)OCc3cc(-n5cccn5)ccc3-4)C1)N2 [Compound 228] | 100 to 1000 nM | 1000 to 10000 nM | 1000 to 10000 nM | 1000 to 10000 nM | 1000 to 10000 nM | 100 to 1000 nM | 100 to 1000 nM | 1000 to 10000 nM | – | –
O=c1cc(-c2ccc3c(c2)COc2nc(OC4CC5CC(F)(F)C(C4)N5)ccc2-3)cc[nH]1 (stereo not drawn) [Compound 229] | > 10000 nM | > 10000 nM | > 10000 nM | > 10000 nM | > 10000 nM | > 10000 nM | – | – | > 10000 nM | > 10000 nM
Fc1ccn(-c2ccc3c(c2)COc2nc(O[C@@H]4C[C@H]5CC[C@@H](C4)N5)ccc2-3)n1 [Compound 230, (1R,3R,5S)-3-{[8-(3-fluoropyrazol-1-yl)-6H-isochromeno[3,4-b]pyridin-3-yl]oxy}-8-azabicyclo[3.2.1]octane] | 100 to 1000 nM | 100 to 1000 nM | 100 to 1000 nM | 1000 to 10000 nM | 1000 to 10000 nM | 100 to 1000 nM | 100 to 1000 nM | 100 to 1000 nM | – | –
COc1cc(-c2ccc3c(c2)COc2nc(N(C)C4CC(C)(C)NC(C)(C)C4)ccc2-3)cnn1 [Compound 231, N-[8-(6-methoxypyridazin-4-yl)-6H-isochromeno[3,4-b]pyridin-3-yl]-N,2,2,6,6-pentamethylpiperidin-4-amine] | 100 to 1000 nM | 100 to 1000 nM | 100 to 1000 nM | 1000 to 10000 nM | 100 to 1000 nM | < 100 nM | 100 to 1000 nM | 100 to 1000 nM | – | –
COc1cc(-c2ccc3c(c2)COc2nc(N(C)[C@@H]4C[C@H]5COC[C@@H](C4)N5)ccc2-3)cnn1 [Compound 232, (1R,5S,7r)-N-[8-(6-methoxypyridazin-4-yl)-6H-isochromeno[3,4-b]pyridin-3-yl]-N-methyl-3-oxa-9-azabicyclo[3.3.1]nonan-7-amine] | < 100 nM | 100 to 1000 nM | 100 to 1000 nM | < 100 nM | < 100 nM | < 100 nM | < 100 nM | < 100 nM | – | –
CN(c1ccc2c(n1)OCc1cc(-c3cn[nH]c3)c(F)cc1-2)C1CC(C)(C)NC(C)(C)C1 [Compound 233, 9-fluoro-N-methyl-8-(1H-pyrazol-4-yl)-N-(2,2,6,6-tetramethylpiperidin-4-yl)-6H-isochromeno[3,4-b]pyridin-3-amine] | < 100 nM | 100 to 1000 nM | 100 to 1000 nM | 1000 to 10000 nM | 100 to 1000 nM | < 100 nM | < 100 nM | 100 to 1000 nM | – | –
CC1(C)CC(Oc2ccc3c(n2)OCc2cc(-c4cn[nH]c4)c(F)cc2-3)CC(C)(C)N1 [Compound 234] | < 100 nM | 100 to 1000 nM | 100 to 1000 nM | 100 to 1000 nM | 100 to 1000 nM | < 100 nM | < 100 nM | < 100 nM | – | –
FC1(F)CC2CC(Oc3ccc4c(n3)OCc3cc(-n5nccn5)ccc3-4)CC1N2 (stereo not drawn) [Compound 235, 6,6-difluoro-3-{[8-(1,2,3-triazol-2-yl)-6H-isochromeno[3,4-b]pyridin-3-yl]oxy}-8-azabicyclo[3.2.1]octane] | > 10000 nM | > 10000 nM | > 10000 nM | > 10000 nM | 1000 to 10000 nM | > 10000 nM | > 10000 nM | > 10000 nM | – | –
Fc1cc2c(cc1-c1cn[nH]c1)COc1nc(O[C@@H]3C[C@H]4CC(F)(F)[C@@H](C3)N4)ccc1-2 [Compound 236] | < 100 nM | 100 to 1000 nM | 100 to 1000 nM | < 100 nM | 100 to 1000 nM | < 100 nM | < 100 nM | < 100 nM | – | –
